{"source": "patent US10618935B2", "about": "“Antibody-drug conjugate (ADC) and method for forming the same” (Industrial Technology Research Institute, priority 2015, dated 2020)", "key": {"FaDu cells": {"system": "FaDu cells", "experiment": "Tumor growth inhibition test, FaDu subcutaneous tumor in C.B-17 SCID mice", "assay_type": "in vivo", "conditions": "Day 8-29; 0.1 mg/kg intravenously once at Day 8; n=6", "procedure": "(§1) 1×10^6 of FaDu cells were subcutaneous injected to C.B-17 SCID mice at Day 0. The length and width of the tumor were measured and the tumor size was calculated by (length×width×width×½) (mm^3) and recorded. […] Tumor growth and body weight of the mice were observed twice every week."}, "[1]": {"experiment": "Body weight and clinical symptoms in the tumor growth inhibition test", "conditions": "FIG. 20", "procedure": "as §1"}}, "note": "Square brackets hold non-standard residues; d marks the D form. Peptide text beside a SMILES is read from it. * marks the point of attachment. Dolaproine = CO[C@@H]([C@@H]1CCCN1)[C@@H](C)C(=O)O; Dil = CC[C@H](C)[C@H](NC)[C@@H](CC(=O)O)OC; X2 = C[C@@H](N*)[C@@H](O)c1ccccc1; NMeV = CN[C@H](C(=O)O)C(C)C", "data": [{"smiles": "CC[C@H](C)[C@@H]([C@@H](CC(=O)N1CCC[C@H]1[C@H](OC)[C@@H](C)C(=O)N[C@H](C)[C@@H](O)c1ccccc1)OC)N(C)C(=O)[C@@H](NC(=O)[C@@H](NC)C(C)C)C(C)C", "note": "[MMAE] (H-[NMeV]V[Dil][Dolaproine]-X2)", "values": [{"measurement": "TGI (%) ± SEM", "setting": "FaDu cells", "value": "12 ± 6", "unit": "%"}, {"measurement": "weight loss or abnormal clinical symptoms after drug administration", "setting": "[1]", "value": "no weight losing or other significant abnormal clinical symptoms occurred"}]}, {"smiles": "CC[C@H](C)C([C@@H](CC(=O)N1CCC[C@H]1[C@H](OC)[C@@H](C)C(=O)NC(Cc1ccccc1)C(=O)NCCc1ccc(N)cc1)OC)N(C)C(=O)C(NC(=O)[C@H](C(C)C)N(C)C)C(C)C", "note": "(stereo partly shown) [APEA-AF]", "values": [{"measurement": "TGI (%) ± SEM", "setting": "FaDu cells", "value": "11 ± 17", "unit": "%"}, {"measurement": "weight loss or abnormal clinical symptoms after drug administration", "setting": "[1]", "value": "no weight losing or other significant abnormal clinical symptoms occurred"}]}]}
